Measured values taken from patent publication US6831075B2, “Heterocyclic substituted pyrazolones” (Cephalon, Inc., priority 1999, dated 2004).

What follows are compounds tested against T1, baculovirus-expressed human trkA cytoplasmic domain (Homo sapiens, UniProt P04629) (assay: trkA tyrosine kinase inhibition assay (ELISA-based)). Conditions: 1 uM compound; 40 μM ATP.
T1 construct: baculovirus-expressed human trkA cytoplasmic domain; host or cells: baculovirus expression system
Assay type: biochemical
Method: Inhibition of trkA Tyrosine Kinase Activity
Selected heterocyclic substituted pyrazolones were tested for their ability to inhibit the kinase activity of baculovirus-expressed human trkA cytoplasmic domain using an ELISA-based assay as previously described (Angeles et al., Anal. Biochem. 236: 49-55, 1996). Briefly, a 96-well microtiter plate was coated with substrate solution (recombinant human phospholipase C-γl/glutathione S-transferase fusion protein (Rotin et al., EMBO J., 11: 559-567, 1992). Inhibition studies were performed in 100 μl assay mixtures containing 50 mM Hepes, pH 7.4, 40 μM ATP, 10 mM MnCl2, 0.1% BSA, 2% DMSO, and various concentrations of inhibitor. The reaction was initiated by addition of trkA kinase and allowed to proceed for 15 minutes at 37° C. An antibody to phosphotyrosine (UBI) was then added, followed by a secondary enzyme-conjugated antibody, alkaline phosphatase-labelled goat anti-mouse IgG (Bio-Rad). The activity of the bound enzyme was measured via an amplified detection system (Gibco-BRL). Inhibition data were analyzed using the sigmoidal dose-response (variable slope) equation in GraphPad Prism.

T1 sequence (P04629 440-796 limits assumed): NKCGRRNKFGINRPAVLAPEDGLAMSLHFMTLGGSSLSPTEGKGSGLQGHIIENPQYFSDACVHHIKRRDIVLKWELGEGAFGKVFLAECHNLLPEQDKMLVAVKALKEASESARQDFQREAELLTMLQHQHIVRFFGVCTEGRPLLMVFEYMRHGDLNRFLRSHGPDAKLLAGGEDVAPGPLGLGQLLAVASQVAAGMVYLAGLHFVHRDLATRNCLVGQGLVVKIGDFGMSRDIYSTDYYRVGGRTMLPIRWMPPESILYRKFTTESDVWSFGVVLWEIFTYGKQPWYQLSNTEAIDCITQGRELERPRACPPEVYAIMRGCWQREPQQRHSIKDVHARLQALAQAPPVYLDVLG

First: O=C1NN=C(c2nccs2)C1=Cc1cn(Cc2ccccc2)c2ccccc12 [Compound 70]
Second: Cn1cc(C=C2C(=O)NN=C2c2cccs2)c2ccccc21 [Compound 63]
The “trkA % inhibition @ 1 uM” value of the first is lower: 32% for the first, 60% for the second.

Compared with `N#CCCn1cc(C=C2C(=O)NN=C2c2ccco2)c2ccccc21` [Compound 67], `O=C1NN=C(c2ccco2)C1=Cc1c[nH]c2ccc(OCc3ccccc3)cc12` [Compound 43] is higher in “trkA % inhibition @ 1 uM” value: 40% for the first, 42% for the second.

Compared with `Cc1cc(C)c(C=C2C(=O)NN=C2c2cc(-c3ccc(Cl)cc3)oc2C)[nH]1` [Compound 41], `Cc1cc(C)c(C=C2C(=O)NN=C2c2csc3ccccc23)[nH]1` [Compound 39] is higher in “trkA % inhibition @ 1 uM” value: 17% for the first, 31% for the second.

Compared with `COc1ccc2[nH]cc(C=C3C(=O)NN=C3c3ccoc3)c2c1` [Compound 11], `Cc1cccc2c(C=C3C(=O)NN=C3c3ccn(C)c3)c[nH]c12` [Compound 34] is lower in “trkA % inhibition @ 1 uM” value: 65% for the first, 25% for the second.

Compared with `Cc1cc(C)c(C=C2C(=O)NN=C2c2cc3ccccc3o2)[nH]1` [Compound 57, 3-benzo[d]furan-2-yl-4-[(3,5-dimethylpyrrol-2-yl)methylene]-2-pyrazolin-5-one], `O=C1NN=C(c2cccs2)C1=Cc1c[nH]c2ccccc12` [Compound 38, 4-(indol-3-ylmethylene)-3-(2-thienyl)-2-pyrazolin-5-one] is higher in inhibition at 1 µM: 33% for the first, 40% for the second.

The compounds below were run against T2, recombinant human baculoviral VEGFR2 cyctoplasmic domain (Homo sapiens, UniProt P35968) (assay: VEGFR2 kinase inhibition assay (ELISA-based, time-resolved fluorescence)). Conditions: 1 uM compound; 30 μM ATP.
T2 construct: recombinant human baculoviral VEGFR2 cyctoplasmic domain; host or cells: baculovirus expression system
Assay type: biochemical

T2 sequence (P35968 786-1356 limits assumed): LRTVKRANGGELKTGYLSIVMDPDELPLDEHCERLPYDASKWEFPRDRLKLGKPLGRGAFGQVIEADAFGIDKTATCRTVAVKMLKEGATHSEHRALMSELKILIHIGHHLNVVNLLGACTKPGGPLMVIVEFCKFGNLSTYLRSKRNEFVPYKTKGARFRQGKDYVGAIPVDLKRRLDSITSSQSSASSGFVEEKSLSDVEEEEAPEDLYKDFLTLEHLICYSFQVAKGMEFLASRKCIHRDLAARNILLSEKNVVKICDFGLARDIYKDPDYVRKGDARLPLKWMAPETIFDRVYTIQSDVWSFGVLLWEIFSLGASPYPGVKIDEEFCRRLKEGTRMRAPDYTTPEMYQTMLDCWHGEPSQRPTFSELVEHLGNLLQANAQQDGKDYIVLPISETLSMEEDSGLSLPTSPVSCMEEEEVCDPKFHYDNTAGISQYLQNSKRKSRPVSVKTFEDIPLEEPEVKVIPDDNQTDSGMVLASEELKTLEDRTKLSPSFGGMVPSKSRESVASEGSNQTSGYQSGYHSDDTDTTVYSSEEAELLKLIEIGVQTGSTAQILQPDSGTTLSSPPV

Going from `O=C1NN=C(c2nccs2)C1=Cc1cn(Cc2ccccc2)c2ccccc12` [Compound 70] to `Cn1cc(C=C2C(=O)NN=C2c2cccs2)c2ccccc21` [Compound 63], the “VEGFR-2 kinase % inhibition @ 1 uM” value rises from 51% to 75%.

First: N#CCCn1cc(C=C2C(=O)NN=C2c2ccco2)c2ccccc21 [Compound 67]
Second: O=C1NN=C(c2ccco2)C1=Cc1c[nH]c2ccc(OCc3ccccc3)cc12 [Compound 43]
The “VEGFR-2 kinase % inhibition @ 1 uM” value of the first is lower: 20% for the first, 25% for the second.

`Cc1cc(C)c(C=C2C(=O)NN=C2c2cc(-c3ccc(Cl)cc3)oc2C)[nH]1` [Compound 41] and `Cc1cc(C)c(C=C2C(=O)NN=C2c2csc3ccccc23)[nH]1` [Compound 39] are the same in “VEGFR-2 kinase % inhibition @ 1 uM” value: 13% for the first, 13% for the second.

First: COc1ccc2[nH]cc(C=C3C(=O)NN=C3c3ccoc3)c2c1 [Compound 11]
Second: Cc1cccc2c(C=C3C(=O)NN=C3c3ccn(C)c3)c[nH]c12 [Compound 34]
The “VEGFR-2 kinase % inhibition @ 1 uM” value of the first is higher: 50% for the first, 32% for the second.

Same assay, conditions: 1 uM compound; 30 μM ATP; read-out: VEGFR-2 kinase % inhibition @ 1 uM

First: Cc1cc(C)c(C=C2C(=O)NN=C2c2cc3ccccc3o2)[nH]1 [Compound 57, 3-benzo[d]furan-2-yl-4-[(3,5-dimethylpyrrol-2-yl)methylene]-2-pyrazolin-5-one]
Second: O=C1NN=C(c2cccs2)C1=Cc1c[nH]c2ccccc12 [Compound 38, 4-(indol-3-ylmethylene)-3-(2-thienyl)-2-pyrazolin-5-one]
The inhibition at 1 µM of the first is lower: 30% for the first, 42% for the second.

These compounds were tested against T3, baculoviral GST-MLK3KD (Homo sapiens, UniProt Q16584) (assay: Mixed Lineage Kinase-3 inhibition assay (Millipore Multiscreen plate, 32P)). Conditions: 1 uM compound; 100 μM ATP.
T3 construct: 2 μg/ml of baculoviral GST-MLK3KD; GST (N); host or cells: baculovirus expression system
Assay type: biochemical
Method: Inhibition of Mixed Lineage Kinase-3 Activity
Assays were performed using the Millipore Multiscreen plate format as described for MLK1. Briefly, each 50-μl assay mixture contained 20 mM Hepes, pH 7, 1 mM EGTA, 10 mM MgCl2, 1 mM DTT, 25 mM β-glycerophosphate, 100 μM ATP, 0.25 μCi [γ-^32P]ATP, 0.1% BSA, 500 μg/ml myelin basic protein (UBI #13-104), 2% DMSO, various concentrations of test compound, and 2 μg/ml of baculoviral GST-MLK3KD. Samples were incubated for 15 min at 37° C. The reaction was stopped by adding ice cold 50% TCA and the proteins were allowed to precipitate for 30 min at 4° C. The plates were then washed with ice cold 25% TCA. Supermix scintillation cocktail was added, and the plates were allowed to equilibrate for 1-2 hours prior to counting.

T3 sequence (Q16584 117-379 limits assumed): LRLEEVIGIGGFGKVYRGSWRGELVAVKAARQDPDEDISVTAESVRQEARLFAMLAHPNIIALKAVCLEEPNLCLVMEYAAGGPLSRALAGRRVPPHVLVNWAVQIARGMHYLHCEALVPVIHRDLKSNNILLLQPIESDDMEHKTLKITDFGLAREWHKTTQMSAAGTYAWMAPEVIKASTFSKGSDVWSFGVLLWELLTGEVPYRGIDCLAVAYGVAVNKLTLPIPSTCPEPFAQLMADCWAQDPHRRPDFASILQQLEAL

Compared with `O=C1NN=C(c2nccs2)C1=Cc1cn(Cc2ccccc2)c2ccccc12` [Compound 70], `Cn1cc(C=C2C(=O)NN=C2c2cccs2)c2ccccc21` [Compound 63] is higher in “MLK-3 Kinase % inhibition @ 1 uM” value: 15% for the first, 78% for the second.

Compared with `N#CCCn1cc(C=C2C(=O)NN=C2c2ccco2)c2ccccc21` [Compound 67], `O=C1NN=C(c2ccco2)C1=Cc1c[nH]c2ccc(OCc3ccccc3)cc12` [Compound 43] is higher in “MLK-3 Kinase % inhibition @ 1 uM” value: 8% for the first, 21% for the second.

First: Cc1cc(C)c(C=C2C(=O)NN=C2c2cc(-c3ccc(Cl)cc3)oc2C)[nH]1 [Compound 41]
Second: Cc1cc(C)c(C=C2C(=O)NN=C2c2csc3ccccc23)[nH]1 [Compound 39]
The “MLK-3 Kinase % inhibition @ 1 uM” value of the first is lower: 10% for the first, 55% for the second.

Going from `COc1ccc2[nH]cc(C=C3C(=O)NN=C3c3ccoc3)c2c1` [Compound 11] to `Cc1cccc2c(C=C3C(=O)NN=C3c3ccn(C)c3)c[nH]c12` [Compound 34], the “MLK-3 Kinase % inhibition @ 1 uM” value rises from 31% to 32%.

Same assay, conditions: 1 uM compound; 100 μM ATP; read-out: MLK-3 Kinase % inhibition @ 1 uM

First: Cc1cc(C)c(C=C2C(=O)NN=C2c2cc3ccccc3o2)[nH]1 [Compound 57, 3-benzo[d]furan-2-yl-4-[(3,5-dimethylpyrrol-2-yl)methylene]-2-pyrazolin-5-one]
Second: O=C1NN=C(c2cccs2)C1=Cc1c[nH]c2ccccc12 [Compound 38, 4-(indol-3-ylmethylene)-3-(2-thienyl)-2-pyrazolin-5-one]
The inhibition at 1 µM of the first is higher: 67% for the first, 38% for the second.

What follows are compounds tested against T4, recombinant human baculovirus-expressed VEGFR1 cytoplasmic domain (Homo sapiens, UniProt P17948) (assay: VEGFR1 kinase inhibition assay (ELISA-based, time-resolved fluorescence)). Conditions: 1 uM compound; 30 μM ATP.
T4 construct: recombinant human baculovirus-expressed VEGFR1 cytoplasmic domain; host or cells: baculovirus expression system
T4 sequence (P17948 781-1338 limits assumed): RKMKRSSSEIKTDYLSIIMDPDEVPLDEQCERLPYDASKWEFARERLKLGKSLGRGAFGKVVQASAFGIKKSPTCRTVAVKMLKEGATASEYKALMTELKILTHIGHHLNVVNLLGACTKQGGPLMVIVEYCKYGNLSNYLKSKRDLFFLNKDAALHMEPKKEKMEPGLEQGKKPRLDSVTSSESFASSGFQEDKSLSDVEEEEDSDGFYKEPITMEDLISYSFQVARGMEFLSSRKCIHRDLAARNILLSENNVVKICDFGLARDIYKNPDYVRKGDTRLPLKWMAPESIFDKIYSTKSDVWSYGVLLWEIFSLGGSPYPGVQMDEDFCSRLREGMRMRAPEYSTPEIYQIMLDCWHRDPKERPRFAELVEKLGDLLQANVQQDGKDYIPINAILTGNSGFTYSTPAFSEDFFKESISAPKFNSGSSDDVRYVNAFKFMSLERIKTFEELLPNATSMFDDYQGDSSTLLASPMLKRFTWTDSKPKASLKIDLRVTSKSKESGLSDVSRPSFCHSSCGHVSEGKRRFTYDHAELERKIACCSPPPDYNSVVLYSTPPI
Assay type: biochemical
Method: Inhibition of Vascular Endothelial Growth Factor Receptor-1 Kinase Activity
The VEGFR1 kinase activity assay utilizes an ELISA-based format in a 96-well FluoroNUNC Maxisorp plate with a time-resolved fluorescence readout. The plate was coated with 100 μl/well of substrate solution (recombinant human PLC-γ/GST) at a concentration of 40 μg/ml in Tris buffered saline (TBS). The VEGFR1 activity was assayed in 100-μl assay micture containing 50 mM HEPES (pH 7.4), 30 μM ATP, 10 mM MnCl2, 0.1% BSA, 2% DMSO, and 300 ng/ml prephosphorylated recombinant human baculovirus-expressed VEGFR1 cytoplasmic domain. Compounds were screened for inhibition of the VEGFR1 kinase activity at a concentration of 1 μM. The kinase reaction was allowed to proceed at 37° C. for 15 minutes. The detection antibody, europium-labeled anti-phosphotyrosine antibody (Wallac #CR04-100), was added at 1:5000 dilution in block buffer (3% BSA in TBST). After a 1-hour incubation at 37° C., 100 μl of enhancement solution (Wallac #1244-105) was added and the plate was gently agitated. After 5 min, the fluorescence of the resulting solution was measured using the BMG Fluostar (Model # 403).

Compared with `O=C1NN=C(c2nccs2)C1=Cc1cn(Cc2ccccc2)c2ccccc12` [Compound 70], `Cn1cc(C=C2C(=O)NN=C2c2cccs2)c2ccccc21` [Compound 63] is higher in “VEGFR-1 kinase % inhibition @ 1 uM” value: 1% for the first, 40% for the second.

Compared with `N#CCCn1cc(C=C2C(=O)NN=C2c2ccco2)c2ccccc21` [Compound 67], `O=C1NN=C(c2ccco2)C1=Cc1c[nH]c2ccc(OCc3ccccc3)cc12` [Compound 43] is lower in “VEGFR-1 kinase % inhibition @ 1 uM” value: 22% for the first, −2% for the second.

Compared with `Cc1cc(C)c(C=C2C(=O)NN=C2c2cc(-c3ccc(Cl)cc3)oc2C)[nH]1` [Compound 41], `Cc1cc(C)c(C=C2C(=O)NN=C2c2csc3ccccc23)[nH]1` [Compound 39] is lower in “VEGFR-1 kinase % inhibition @ 1 uM” value: 5% for the first, 4% for the second.

Compared with `COc1ccc2[nH]cc(C=C3C(=O)NN=C3c3ccoc3)c2c1` [Compound 11], `Cc1cccc2c(C=C3C(=O)NN=C3c3ccn(C)c3)c[nH]c12` [Compound 34] is higher in “VEGFR-1 kinase % inhibition @ 1 uM” value: 23% for the first, 30% for the second.

Same assay, conditions: 1 uM compound; 30 μM ATP; read-out: VEGFR-1 kinase % inhibition @ 1 uM

Going from `Cc1cc(C)c(C=C2C(=O)NN=C2c2cc3ccccc3o2)[nH]1` [Compound 57, 3-benzo[d]furan-2-yl-4-[(3,5-dimethylpyrrol-2-yl)methylene]-2-pyrazolin-5-one] to `O=C1NN=C(c2cccs2)C1=Cc1c[nH]c2ccccc12` [Compound 38, 4-(indol-3-ylmethylene)-3-(2-thienyl)-2-pyrazolin-5-one], the inhibition at 1 µM rises from 7% to 28%.
